Key:
[1] = test system: 3T3L1 cells; experiment: Adipogenesis of 3T3L1 cell line, Oil Red-O staining; format: cell-based
Protocol: The preadipocyte cell line 3T3L1 was seeded in complete DMEM (supplemented with 10% FBS). Once the cells reached almost full confluent state, they were treated with differentiation media (2 μg/mL Insulin, 0.5 mM IBMX and 1 μM Dexamethasone) for 2 days. After the differentiation induction, the cells were kept in maintenance media (2 μg/mL Insulin) for another 4-6 days with media change given every 2 days. The completion of adipogenesis was confirmed by the observation of lipid droplet accumulation in most of the cells. On the 6th day post induction of differentiation the cells were fixed with 3.7% formaldehyde solution followed by staining with Oil Red-O dye (prepared in 60% isopropanol) for 1 hour at room temperature. The incorporated dye was extracted using isopropanol and absorbance values were determined spectrophotometrically at 510 nm to estimate total amount of lipid accumulation under different experimental conditions.

[2] = test system: genetically obese db/db mice; experiment: Liver and adipose tissue of genetically obese db/db mice; format: in vivo
Text: After the treatment of the mice with compound of Formula I for one month, the mice were sacrificed and their liver and epididymal fat pads were harvested. The organs were individually weighed and then processed for morphology study by hematoxylin and eosin staining.
Average weights of liver (i) and adipose tissue (ii) of the mice of the three different groups are represented by bar graphs (FIG. 11); n=4 in each group:one-way ANOVA with Dunnett's multiple comparison; * P<0.05, ** P<0.01, *** P<0.001, ns: not significant. Representative images of morphology of adipose tissue (iii) and liver (iv) from the mice of the three groups, as studied by hematoxylin and eosin staining.

[3] = Single dose toxicity study for maximum tolerated dose; format: in vivo
Protocol: The single dose toxicity study on compound X was conducted in accordance with Good Laboratory Practice Principles as published by the OECD in 1998, in accordance with the Drugs and Cosmetics Rule (New Drugs and Clinical trials, 2019/DCGI). Compound X (formulated in vehicle i.e. 0.5% sodium salt of carboxymethyl cellulose) was administered to Sprague Dawley rats once by oral route on the day of scheduled treatment. The three treatment groups were 250 mg, 500 mg, and 1000 mg/kg body weight, while vehicle control was administered to control group. The rat equivalent doses were calculated from the dosage used in mice experiments following FDA guidelines for drug administration. The doses finally administered were 10, 20 and 40 times the corresponding mice equivalent dose. Food, but not water, was removed thus letting the animals fast over-night prior to dosing. […] Animals were subsequently observed once daily for any signs of toxicity, mortality, or any other observations including conditions of skin, hair coat, eyes, mucous membrane, movement, activity, tremors, convulsions, salivation, diarrhea, posture, piloerection and lethargy. Food intake, water intake and body weight of animals was recorded weekly. Terminal sacrifice of surviving animals was performed after 14 days using CO2 euthanasia technique following which animals were necropsied. Animals were fasted over night before necropsy. Gross observations were recorded.

[4] = test system: 3T3L1 cells; experiment: MTT assay for cytotoxicity testing; format: cell-based; details: 25 μM; 2, 4 and 6 days
Protocol: 12500 cells/mL were seeded in presence/absence of compound of Formula I in […] plate and at different intervals of time (2 days, 4 days, 6 days), 1/10th volume of 5 mg/ml MTT solution was added to it followed by incubation at 37° C. for 3 hours. The formed crystals were dissolved in DMSO and spectrometric estimation of colour intensity was done at 570 nm.
MTT assay was performed to check for any possible cellular toxicity effect of compound of Formula I, using 25 μM concentration of the compound on 3T3L1 cells upon incubation for varying lengths of time (2, 4 and 6 days). Comparison was done with cells that were left untreated or treated with DMSO as solvent control (FIG. 3).

COc1ccc(C(=O)C2=C3OC(C)(C)[C@@H](CC=C(C)C)C[C@@]34C[C@@H](CC=C(C)C)C(C)(C)[C@@](CC=C(C)C)(C2=O)C4=O)cc1OC [Compound X]
adipogenesis, Oil-Red O staining [1]: inhibition of adipogenesis
liver and epididymal fat pad weights ([2]; between db/db vehicle and db+/-): intermediate weights
symptoms of liver steatosis and adipose tissue hypertrophy ([2]; one month treatment): significantly reduced
gross morphological changes in organs ([3]; 250, 500, 1000 mg/kg single oral dose, necropsy): no gross morphological changes in any organ
Average food intake, Final ([3]; Female, 250 mg/Kg bw): 16.65 gram/day/animal
Average food intake, Initial ([3]; Female, 250 mg/Kg bw): 20 gram/day/animal
Average food intake, Middle ([3]; Female, 250 mg/Kg bw): 16.32 gram/day/animal
Average water intake, Final ([3]; Female, 250 mg/Kg bw): 16.65 ml/day/animal
Average water intake, Initial ([3]; Female, 250 mg/Kg bw): 20 ml/day/animal
Average water intake, Middle ([3]; Female, 250 mg/Kg bw): 16.32 ml/day/animal
Body weight, Final ([3]; Female, 250 mg/Kg bw): 176.35 gram
Body weight, Initial ([3]; Female, 250 mg/Kg bw): 151.99 gram
Body weight, Mid ([3]; Female, 250 mg/Kg bw): 174.54 gram
Average food intake, Final ([3]; Female, 500 mg/Kg bw): 17.09 gram/day/animal
Average food intake, Initial ([3]; Female, 500 mg/Kg bw): 18.22 gram/day/animal
Average food intake, Middle ([3]; Female, 500 mg/Kg bw): 18.13 gram/day/animal
Average water intake, Final ([3]; Female, 500 mg/Kg bw): 17.09 ml/day/animal
Average water intake, Initial ([3]; Female, 500 mg/Kg bw): 18.22 ml/day/animal
Average water intake, Middle ([3]; Female, 500 mg/Kg bw): 18.13 ml/day/animal
Body weight, Final ([3]; Female, 500 mg/Kg bw): 175.8 gram
Body weight, Initial ([3]; Female, 500 mg/Kg bw): 153.32 gram
Body weight, Mid ([3]; Female, 500 mg/Kg bw): 176.55 gram
Average food intake, Final ([3]; Female, 1000 mg/Kg bw): 16.97 gram/day/animal
Average food intake, Initial ([3]; Female, 1000 mg/Kg bw): 18.17 gram/day/animal
Average food intake, Middle ([3]; Female, 1000 mg/Kg bw): 17.82 gram/day/animal
Average water intake, Final ([3]; Female, 1000 mg/Kg bw): 16.97 ml/day/animal
Average water intake, Initial ([3]; Female, 1000 mg/Kg bw): 18.17 ml/day/animal
Average water intake, Middle ([3]; Female, 1000 mg/Kg bw): 17.82 ml/day/animal
Body weight, Final ([3]; Female, 1000 mg/Kg bw): 179.52 gram
Body weight, Initial ([3]; Female, 1000 mg/Kg bw): 153.81 gram
Body weight, Mid ([3]; Female, 1000 mg/Kg bw): 178.58 gram
Average food intake, Final ([3]; Male, 250 mg/Kg bw): 22.62 gram/day/animal
Average food intake, Initial ([3]; Male, 250 mg/Kg bw): 20.03 gram/day/animal
Average food intake, Middle ([3]; Male, 250 mg/Kg bw): 20.79 gram/day/animal
Average water intake, Final ([3]; Male, 250 mg/Kg bw): 22.62 ml/day/animal
Average water intake, Initial ([3]; Male, 250 mg/Kg bw): 20.03 ml/day/animal
Average water intake, Middle ([3]; Male, 250 mg/Kg bw): 20.79 ml/day/animal
Body weight, Final ([3]; Male, 250 mg/Kg bw): 244.21 gram
Body weight, Initial ([3]; Male, 250 mg/Kg bw): 171.94 gram
Body weight, Mid ([3]; Male, 250 mg/Kg bw): 216.62 gram
Average food intake, Final ([3]; Male, 500 mg/Kg bw): 23.29 gram/day/animal
Average food intake, Initial ([3]; Male, 500 mg/Kg bw): 20.99 gram/day/animal
Average food intake, Middle ([3]; Male, 500 mg/Kg bw): 21.14 gram/day/animal
Average water intake, Final ([3]; Male, 500 mg/Kg bw): 23.29 ml/day/animal
Average water intake, Initial ([3]; Male, 500 mg/Kg bw): 20.99 ml/day/animal
Average water intake, Middle ([3]; Male, 500 mg/Kg bw): 21.14 ml/day/animal
Body weight, Final ([3]; Male, 500 mg/Kg bw): 243.14 gram
Body weight, Initial ([3]; Male, 500 mg/Kg bw): 176.3 gram
Body weight, Mid ([3]; Male, 500 mg/Kg bw): 229.75 gram
Average food intake, Final ([3]; Male, 1000 mg/Kg bw): 19.95 gram/day/animal
Average food intake, Initial ([3]; Male, 1000 mg/Kg bw): 20.76 gram/day/animal
Average food intake, Middle ([3]; Male, 1000 mg/Kg bw): 20.74 gram/day/animal
Average water intake, Final ([3]; Male, 1000 mg/Kg bw): 19.95 ml/day/animal
Average water intake, Initial ([3]; Male, 1000 mg/Kg bw): 20.76 ml/day/animal
Average water intake, Middle ([3]; Male, 1000 mg/Kg bw): 20.74 ml/day/animal
Body weight, Final ([3]; Male, 1000 mg/Kg bw): 226.19 gram
Body weight, Initial ([3]; Male, 1000 mg/Kg bw): 176.24 gram
Body weight, Mid ([3]; Male, 1000 mg/Kg bw): 217.65 gram
effect on food and water consumption ([3]; both gender, all three doses vs vehicle control): no significant treatment related effect
toxic effect (MTT) [4]: No toxic effect

Source: patent US20240269106A1, “SMALL MOLECULE MODULATOR TARGETING A RARE HISTONE MODIFICATION REGULATING ADIPOGENESIS AND PHARMACEUTICAL FORMULATION THEREOF” (COUNCIL OF SCIENTIFIC AND INDUSTRIAL RESEARCH AN INDIAN …, priority 2021, published 2024)
